# Measured values reported in patent US4552843A, “Process for producing an acidic polycyclic ether antibiotic by cultivation of a novel strain of Streptomyces endus subspecies aureus” (Pfizer Inc., priority 1984, dated 1985).
# How the values were obtained:
# rumen fluid = assay: in vitro rumen technique, propionic acid production; parameters: species or system calf; details: for increase in propionic acid: comparison with Salinomycin; for increase in production of propionic acid over control: comparison with Monensin
# Method: The value of animal feeds generally has been determined directly by feeding the animal. British Pat. No. 1,197,826 details an in vitro rumen technique whereby the changes occurring in feeds brought about by microorganisms are measured more readily and with great accuracy in the evaluation of animal feeds. This technique involves the use of an apparatus in which the digestive processes of the animals are conducted and studied in vitro. The animal feeds, rumen inoculum and various growth promotants are introduced into and withdrawn from a laboratory unit under carefully controlled conditions and the changes taken place are studied critically and progressively during the consumption of the feed by the microorganisms. […] The change in propionic acid content is expressed as percent of the propionic acid content found in the control rumen fluid. Long term in vivo feeding studies are used to show a reliable correlation between propionic acid increase in the rumen fluid and improved animal performance.
# Rumen fluid is collected from a fistulated calf which is fed on a commercial fattening ration plus hay. The rumen fluid is immediately filtered through cheese cloth, and 10 ml added to a 50 ml conical flask containing 400 mg of standard substrate (68% corn starch +17% cellulose +15% extracted soybean meal), 10 ml of a pH 6.8 buffer and the test compound. The flasks are gassed with oxygen free nitrogen for about two minutes, and incubated in a shaking water bath at 39° C. for about 16 hours. All tests are conducted in triplicate.
# After incubation, 5 ml of the sample is mixed with 1 ml of 25% metaphosphoric acid. After 10 minutes 0.25 ml of formic acid is added and the mixture centrifuged at 1500 RPM for 10 minutes. Samples are then analyzed by gas-liquid chromatography by the method of D. W. Kellog, J. Dairy Science, 52, 1690 (1969). Peak heights for acetic, propionic and butyric acids are determined for samples from untreated and treated incubation flasks.
# coccidial infections = assay: activity against coccidial infections in poultry; details: in vivo
# Method: Efficacy data for Antibiotic CP-63,517 and its salts against coccidial infections in chickens was obtained in the following fashion. Groups of 3-5 ten-day old SPF white leghorn cockerel chicks were fed a mash diet containing Antibiotic CP-63,517, its sodium and/or potassium salt, or the known agents Monensin or Stenorol uniformly dispersed therein. After being on this ration for 24 hours each chick was inoculated per os with oocysts of the particular species of Eimeria being tested. Other groups of 3-5 ten-day old chicks were fed a similar mash diet free of any test compound. They were also infected after 24 hours and served as infected controls. Yet another group of 3-5 ten-day old chicks were fed the mash diet free of any test compound and were not infected with coccidia. These served as normal controls. The results of treatment were evaluated after five days in the case of E. acervulina, and six days for other challenges.
compound,measurement,setting,value
"COC1CCC(OC2CC3(CC(O)C(C)C(C(C)C=C(C)C(=O)C(C)CC(C)C(=O)O)O3)OC2(C)C2CCC(C)C3(OC(C4OC(O)(CO)C(C)CC4C)CC3C)O2)OC1C (centres unmarked) [CP-63,517]",increase in propionic acid,rumen fluid; 5 μg/ml,about 66%
same,increase in propionic acid,rumen fluid; 20 μg/ml,about 86%
same,increase in production of propionic acid over control,rumen fluid; 10 micrograms per milliliter (10 μg/ml),95%
same,increase in production of propionic acid over control,rumen fluid; 20 micrograms per milliliter,96%
same,activity against coccidial infections in poultry,coccidial infections,excellent activity
